Test results as given in publication PMC11705217, “Substrate preference, RNA binding and active site versatility of Stenotrophomonas maltophilia nuclease SmNuc1, explained by a structural study” (The Febs Journal, 2024).

Target: T1, SmNuc1 (SmNuc1WT) (Stenotrophomonas maltophilia, UniProt B2FSF8)
T1 construct: gene Smlt3806; mature enzyme of 246 residues, 28 kDa, N-terminal Trp27 (native signal removed, expressed with MalE signal peptide), C-terminal His-tag kept, pET303/CT-His, E. coli Lemo21(DE3); three Zn2+ in active site
Assay: in crystallo cleavage (crystal soak, […]), X-ray structure shows product […]'-GMP
Assay type: biochemical
Settings: pH 6.5; only product 5'-GMP seen in structure 9EMG

## Nc1nc2c(ncn2[C@@H]2O[C@@H]3COP(=O)(O)O[C@H]4[C@@H](O)[C@H](n5cnc6c(=O)[nH]c(N)nc65)O[C@@H]4COP(=O)(O)O[C@H]3[C@H]2O)c(=O)[nH]1 [c‐di‐GMP]
  in crystallo cleavage (crystal soak, 5 mM), X-ray structure shows product 5'-GMP: c‐di‐GMP was soaked into a crystal of SmNuc1, resulting in the SmNuc1:GMP* structure
